IC50 data for 14 compounds are collected here from patent publication US10351561B2, “Pyrazolo[3,4-b]pyridines and imidazo[1,5-b]pyridazines as PDE1 inhibitors” (H. Lundbeck A/S, priority 2016, dated 2019).

Holding throughout (type): biochemical
Experiment [1] has as its target PDE1A (Homo sapiens, UniProt P54750). Nature of the experiment: PDE1 inhibition assay (PDE1A), SPA with tritium labelled cAMP. Conditions: 15 nM tritium labelled cAMP, 1 hr at room temperature, SPA beads.
Experiment [2] concerns the target PDE1C (Homo sapiens, UniProt Q14123). The experiment can be described thus: PDE1 inhibition assay (PDE1C), SPA with tritium labelled cAMP. Particulars: 15 nM tritium labelled cAMP, 1 hr at room temperature, SPA beads.
In experiment [3] the target is PDE1B (Homo sapiens, UniProt Q01064). The experiment can be described thus: PDE1 inhibition assay (PDE1B), SPA with tritium labelled cAMP. Conditions: 15 nM tritium labelled cAMP, 1 hr at room temperature, SPA beads; read-out: PDE1B, IC50. The method, then: Reactions were initiated by addition of the cyclic nucleotide substrate, and reactions were allowed to proceed for 1 hr at room temperature before being terminated through mixing with 20 μL (0.2 mg) yttrium silicate SPA beads (PerkinElmer).

The IC50 is the concentration that gives 50% inhibition.

Structures are written as SMILES.

PDE1B, sequence (Q01064 whole entry): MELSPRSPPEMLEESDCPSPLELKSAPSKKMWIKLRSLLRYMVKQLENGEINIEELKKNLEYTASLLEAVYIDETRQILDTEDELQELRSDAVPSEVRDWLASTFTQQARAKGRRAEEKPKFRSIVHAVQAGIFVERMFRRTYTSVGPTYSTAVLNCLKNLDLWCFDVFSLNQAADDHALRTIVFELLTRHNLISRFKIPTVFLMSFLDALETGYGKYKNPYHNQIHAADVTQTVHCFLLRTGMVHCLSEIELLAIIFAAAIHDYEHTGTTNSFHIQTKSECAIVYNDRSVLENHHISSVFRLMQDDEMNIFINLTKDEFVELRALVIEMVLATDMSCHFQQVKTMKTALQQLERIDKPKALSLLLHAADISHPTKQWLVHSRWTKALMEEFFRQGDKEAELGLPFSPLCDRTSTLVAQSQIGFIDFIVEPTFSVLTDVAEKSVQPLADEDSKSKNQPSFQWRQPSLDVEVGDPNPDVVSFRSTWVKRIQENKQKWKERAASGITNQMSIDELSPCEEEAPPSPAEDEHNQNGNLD
PDE1A, sequence (P54750 whole entry): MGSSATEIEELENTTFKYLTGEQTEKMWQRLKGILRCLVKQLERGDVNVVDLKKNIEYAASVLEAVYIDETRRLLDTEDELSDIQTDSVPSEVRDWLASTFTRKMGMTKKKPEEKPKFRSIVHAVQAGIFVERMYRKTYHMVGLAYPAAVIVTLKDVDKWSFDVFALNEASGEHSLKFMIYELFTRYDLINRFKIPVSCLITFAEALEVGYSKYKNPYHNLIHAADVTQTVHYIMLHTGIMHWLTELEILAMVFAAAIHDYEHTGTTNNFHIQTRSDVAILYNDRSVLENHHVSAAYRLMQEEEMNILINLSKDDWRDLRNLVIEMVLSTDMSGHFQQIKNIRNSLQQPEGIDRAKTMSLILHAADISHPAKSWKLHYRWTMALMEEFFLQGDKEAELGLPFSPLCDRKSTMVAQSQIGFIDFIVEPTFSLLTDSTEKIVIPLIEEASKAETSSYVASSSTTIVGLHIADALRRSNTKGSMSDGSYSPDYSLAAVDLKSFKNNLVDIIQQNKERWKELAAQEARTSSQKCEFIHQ
PDE1C, sequence (Q14123 whole entry): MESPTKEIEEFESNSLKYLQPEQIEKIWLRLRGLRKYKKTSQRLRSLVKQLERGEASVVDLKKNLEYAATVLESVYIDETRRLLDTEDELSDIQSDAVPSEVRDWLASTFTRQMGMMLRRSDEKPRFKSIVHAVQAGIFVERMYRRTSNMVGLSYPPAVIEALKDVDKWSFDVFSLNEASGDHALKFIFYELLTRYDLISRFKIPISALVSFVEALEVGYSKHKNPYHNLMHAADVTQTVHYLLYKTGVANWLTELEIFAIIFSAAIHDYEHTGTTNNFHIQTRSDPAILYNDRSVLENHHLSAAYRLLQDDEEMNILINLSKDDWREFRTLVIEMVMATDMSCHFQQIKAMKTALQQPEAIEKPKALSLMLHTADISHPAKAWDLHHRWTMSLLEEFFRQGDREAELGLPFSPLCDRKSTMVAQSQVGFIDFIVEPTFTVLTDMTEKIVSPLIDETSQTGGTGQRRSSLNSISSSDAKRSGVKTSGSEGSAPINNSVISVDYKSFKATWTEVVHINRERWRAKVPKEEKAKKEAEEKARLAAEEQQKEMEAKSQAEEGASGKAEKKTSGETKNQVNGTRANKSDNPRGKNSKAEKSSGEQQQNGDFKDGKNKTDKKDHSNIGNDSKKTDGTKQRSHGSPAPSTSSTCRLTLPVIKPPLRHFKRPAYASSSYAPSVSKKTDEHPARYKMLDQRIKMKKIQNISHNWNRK

Turning to `CCOc1ncccc1-c1cc(NCc2cc(C)[nH]n2)c2c(C(C)C)nn(C)c2n1` [Example 6, 6-(2-ethoxy-3-pyridyl)-3-isopropyl-1-methyl-N-[(5-methyl-1H-pyrazol-3-yl)methyl]pyrazolo[3,4-b]pyridin-4-amine], the IC50 is 14 nM in experiment [1], 20 nM in experiment [2] and 1.2 nM in experiment [3].

Turning to `Cc1ncsc1-c1cc(NCc2ncn(C)n2)c2c(C(C)C)nn(C)c2n1` [Example 61, 3-isopropyl-1-methyl-N-((1-methyl-1H-1,2,4-triazol-3-yl)methyl)-6-(4-methylthiazol-5-yl)-1H-pyrazolo[3,4-b]pyridin-4-amine], the values for the 50% inhibitory concentration (IC50) in experiment [1], in experiment [2] and in experiment [3] were 32 nM, 46 nM and 4.6 nM, respectively.

For the compound `CCOc1ncccc1-c1cc(NCc2cnc(C)o2)c2c(C(C)C)nc(C)n2n1` [Example 16, 2-(2-ethoxy-3-pyridyl)-5-isopropyl-7-methyl-N-[(2-methyloxazol-5-yl)methyl]imidazo[1,5-b]pyridazin-4-amine], the IC50 in experiment [1] was determined as 19 nM; in experiment [2], 16 nM; in experiment [3] it was 2.8 nM.

Regarding `CCCOc1ncccc1-c1cc(NCc2ncn(C)n2)c2c(C(C)C)nc(C)n2n1` [Example 72, 5-isopropyl-7-methyl-N-[(1-methyl-1,2,4-triazol-3-yl)methyl]-2-(2-propoxy-3-pyridyl)imidazo[1,5-b]pyridazin-4-amine], the half-maximal inhibitory concentration (IC50) in experiment [1] is 1.4 nM; in experiment [2], 1.1 nM; in experiment [3], 0.27 nM.

For the compound `CCOc1ncccc1-c1cc(NCc2nc(C)no2)c2c(C(C)C)nc(C)n2n1` [Example 46, 2-(2-ethoxy-3-pyridyl)-5-isopropyl-7-methyl-N-[(3-methyl-1,2,4-oxadiazol-5-yl)methyl]imidazo[1,5-b]pyridazin-4-amine], the values for the concentration for half-maximal inhibition (IC50) in experiment [1], in experiment [2] and in experiment [3] were 21 nM, 14 nM and 4.1 nM, respectively.

For the compound `CC(C)c1nn(C)c2nc(-c3ccccc3)cc(NCc3ncn(C)n3)c12` [Example 63, 3-isopropyl-1-methyl-N-[(1-methyl-1,2,4-triazol-3-yl)methyl]-6-phenyl-pyrazolo[3,4-b]pyridin-4-amine], the figures for the IC50 in experiment [1], in experiment [2] and in experiment [3] were 83 nM, 36 nM and 21 nM, respectively.

In the case of `CCOc1ncccc1-c1cc(NCc2cc(OC)ccn2)c2c(C(C)C)nn(C)c2n1` [Example 39, 6-(2-ethoxy-3-pyridyl)-3-isopropyl-N-[(4-methoxy-2-pyridyl)methyl]-1-methyl-pyrazolo[3,4-b]pyridin-4-amine], the IC50 in experiment [1] amounted to 27 nM; in experiment [2], 25 nM; in experiment [3], 3.4 nM.

`CCOc1ncccc1-c1cc(NCc2noc(C)n2)c2c(C(C)C)nn(C)c2n1` [Example 5, 6-(2-ethoxy-3-pyridyl)-3-isopropyl-1-methyl-N-[(5-methyl-1,2,4-oxadiazol-3-yl)methyl]pyrazolo[3,4-b]pyridin-4-amine]: the concentration for half-maximal inhibition (IC50) was 8.9 nM in experiment [1], 19 nM in experiment [2] and 1.1 nM in experiment [3].

As for `CCOc1ncccc1-c1cc(NCc2cccc(OC)n2)c2c(C(C)C)nn(C)c2n1` [Example 41, 6-(2-ethoxy-3-pyridyl)-3-isopropyl-N-[(6-methoxy-2-pyridyl)methyl]-1-methyl-pyrazolo[3,4-b]pyridin-4-amine], the results for the IC50 in experiment [1], in experiment [2] and in experiment [3] were 440 nM, 560 nM and 110 nM, respectively.

Regarding `CCOc1ncccc1-c1cc(NCc2cnc(C)o2)c2c(C(C)C)nn(C)c2n1` [Example 27, 6-(2-ethoxy-3-pyridyl)-3-isopropyl-1-methyl-N-[(2-methyloxazol-5-yl)methyl]pyrazolo[3,4-b]pyridin-4-amine], the concentration for half-maximal inhibition (IC50) in experiment [1] was determined as 53 nM; in experiment [2], 60 nM; in experiment [3], 10 nM.

For `CCOc1ncccc1-c1cc(NCc2cc[nH]n2)c2c(C(C)CC)nc(C)n2n1` (single isomer, unassigned; (+)) [Example 51, (+)-2-(2-ethoxy-3-pyridyl)-7-methyl-N-(1H-pyrazol-3-ylmethyl)-5-[1-methylpropyl]imidazo[1,5-b]pyridazin-4-amine], the 50% inhibitory concentration (IC50) in experiment [1] came to 57 nM; in experiment [2], 31 nM; in experiment [3], 4.3 nM.

Take `CCOc1ncccc1-c1cc(NCc2ncc(F)cn2)c2c(C(C)C)nc(C)n2n1` [Example 76, 2-(2-ethoxy-3-pyridyl)-N-[(5-fluoropyrimidin-2-yl)methyl]-5-isopropyl-7-methyl-imidazo[1,5-b]pyridazin-4-amine]: the IC50 in experiment [1] turned out to be 89 nM; in experiment [2] it was 110 nM; in experiment [3], 17 nM.

Consider `CCOc1ncccc1-c1cc(NCc2cc[nH]n2)c2c(C(C)CC)nc(C)n2n1` (single isomer, unassigned; (-)) [Example 52, (−)-2-(2-ethoxy-3-pyridyl)-7-methyl-N-(1H-pyrazol-3-ylmethyl)-5-[1-methylpropyl]imidazo[1,5-b]pyridazin-4-amine], for which the IC50 in experiment [1] came to 12 nM; in experiment [2] it was 6.1 nM; in experiment [3], 0.65 nM.

For the compound `CCOc1ncccc1-c1cc(NCc2cnc(C)s2)c2c(C(C)C)nn(C)c2n1` [Example 28, 6-(2-ethoxy-3-pyridyl)-3-isopropyl-1-methyl-N-[(2-methylthiazol-5-yl)methyl]pyrazolo[3,4-b]pyridin-4-amine], the IC50 in experiment [1] was found to be 14 nM; in experiment [2] it was 13 nM; in experiment [3], 4.4 nM.
